The subject of assay [1] is purified bovine brain tubulin. The conditions noted are these: Data from Pettit et al., 2000; read-out: Inhibition of tubulin polymerization IC50 (μM) ± SD; cited from earlier work.
The subject of a further assay is SK-OV-3. The note with it: Data from Devkota et. al., 2016; read-out: GI50 (μM) SRB assay SK-OV-3; cited from earlier work. In general terms: The SRB assay estimates cell density from bound dye.
The test system of another assay is DU-145. The note with it: Data from Devkota et. al., 2016; read-out: GI50 (μM) SRB assay DU-145; cited from earlier work.
Another assay has as its system tubulin. Put plainly: Colchicine binding assay (inhibition of [3H]colchicine binding to tubulin). The note with it: inhibitor at 1 μM. The protocol:
Inhibition of [^3H]colchicine binding to tubulin was measured using reaction mixtures (100 μL each) containing 1.0 μM tubulin, 5.0 μM [^3H]colchicine (from Perkin-Elmer), 5% (v/v) dimethyl sulfoxide, […], and components that stabilize the colchicine binding activity of tubulin (Hamel et al., 1981) (1.0 M monosodium glutamate [adjusted to pH 6.6 with HCl in a 2.0 M stock solution], 0.5 mg/mL bovine serum albumin, 0.1 M glucose-1-phosphate, 1.0 mM MgCl2, and 1.0 mM GTP). […] Reactions were stopped with 2.0 mL of ice-cold water, and the reaction mixtures were placed on ice. Each sample was poured onto a stack of two DEAE-cellulose filters (from Whatman), followed by 6 mL of ice-cold water. The samples were aspirated under reduced vacuum. The filters were washed three times with 2 mL water and placed into vials containing 5 mL of Biosafe II scintillation cocktail. Samples were counted 18 h later in a Beckman scintillation counter. Samples with inhibitors were compared to samples with no inhibitor, and percent inhibition was determined. All samples were corrected for the amount of radiolabel bound to the filters in the absence of tubulin.

The test system of the next assay is NCI-H460. The note with it: Data from Devkota et. al., 2016; read-out: GI50 (μM) SRB assay NCI-H460; cited from earlier work.

Structures are written as SMILES.

Usually IC50 stands for the concentration needed to halve the response being measured. One may read the GI50 as the concentration at which growth is held to half of that of the control. As to `COc1ccc(/C=C\c2cc(OC)c(OC)c(OC)c2)cc1O` [CA4], in assay [1], the IC50 was […]. Moreover, the GI50 is 0.00506 µM with SK-OV-3, 0.00602 µM with DU-145 and 0.005 µM in the assay on NCI-H460. Moreover, the “% Inhibition of colchicine binding ± SD” value in the assay on tubulin is […].
